Biological target: T1, human TLR9 (Homo sapiens, UniProt Q9NR96)
T1 construct: host or cells: HEK-Blue cells
T1 sequence (Q9NR96 26-1032): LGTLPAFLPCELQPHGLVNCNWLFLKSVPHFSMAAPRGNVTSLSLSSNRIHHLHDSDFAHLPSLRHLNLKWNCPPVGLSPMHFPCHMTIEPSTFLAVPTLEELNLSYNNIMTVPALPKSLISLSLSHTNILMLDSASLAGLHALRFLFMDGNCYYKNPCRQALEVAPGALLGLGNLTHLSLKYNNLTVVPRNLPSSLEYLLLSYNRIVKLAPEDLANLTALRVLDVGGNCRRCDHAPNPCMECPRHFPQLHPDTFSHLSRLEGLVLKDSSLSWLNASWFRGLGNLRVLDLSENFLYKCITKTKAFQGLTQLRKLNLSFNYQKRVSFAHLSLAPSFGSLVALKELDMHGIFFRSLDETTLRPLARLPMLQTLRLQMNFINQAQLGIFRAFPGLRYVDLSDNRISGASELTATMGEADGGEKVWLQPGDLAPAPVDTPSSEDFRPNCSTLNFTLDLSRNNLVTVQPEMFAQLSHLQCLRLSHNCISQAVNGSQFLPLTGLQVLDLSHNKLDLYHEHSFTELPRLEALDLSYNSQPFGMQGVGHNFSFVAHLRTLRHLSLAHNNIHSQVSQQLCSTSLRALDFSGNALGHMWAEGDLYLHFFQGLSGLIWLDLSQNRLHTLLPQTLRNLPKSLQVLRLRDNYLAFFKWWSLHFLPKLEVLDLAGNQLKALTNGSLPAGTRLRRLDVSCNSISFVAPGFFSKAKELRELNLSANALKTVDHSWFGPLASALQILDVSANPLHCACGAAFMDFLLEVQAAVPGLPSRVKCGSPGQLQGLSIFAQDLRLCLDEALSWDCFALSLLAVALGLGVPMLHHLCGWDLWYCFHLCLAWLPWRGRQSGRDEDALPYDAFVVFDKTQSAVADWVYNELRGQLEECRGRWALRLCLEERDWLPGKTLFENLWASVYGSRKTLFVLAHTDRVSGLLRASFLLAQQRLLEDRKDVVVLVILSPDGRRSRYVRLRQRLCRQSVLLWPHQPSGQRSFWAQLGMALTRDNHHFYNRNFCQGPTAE
Assay: TLR9 inhibition reporter assay (HEK-Blue cells, SEAP reporter)
Format: cell-based
Conditions: HEK-Blue cells overexpressing human TLR9, stimulated with ODN2006 5 nM, 22 hour incubation
Protocol: (§1) TLR7/8/9 Inhibition Reporter Assays
HEK-Blue™-cells (Invivogen) overexpressing human TLR7, TLR8 or TLR9 receptors were used for screening inhibitors of these receptors using an inducible SEAP (secreted embryonic alkaline phosphatase) reporter gene under the control of the IFN-β minimal promoter fused to five NF-κB and AP-1-binding sites. Briefly, cells are seeded into Greiner 384 well plates (15000 cells per well for TLR7, 20,000 for TLR8 and 25,000 for TLR9) and then treated with test compounds in DMSO to yield a final dose response concentration range of 0.05 nM-50 μM. […] After a 22 hour incubation at 37° C., 5% CO2, SEAP levels are determined with the addition of HEK-Blue™ Detection reagent (Invivogen), a cell culture medium that allows for detection of SEAP, according to manufacturer's specifications. The percent inhibition is determined as the % reduction in the HEK-Blue signal present in wells treated with agonist plus DMSO alone compared to wells treated with a known inhibitor.

| SMILES | IC50 [nM] |
| --- | --- |
| Cc1nc(-c2ccc(CN3CCN(CCC(C)(C)O)CC3)cc2)cc2c1cc(-c1ccc(S(C)(=O)=O)cc1)n2C(F)F [Example 117, 4-[4-[[4-[1-(difluoromethyl)-4-methyl-2-(4-methylsulfonylphenyl)pyrrolo[3,2-c]pyridin-6-yl]phenyl]methyl]piperazin-1-yl]-2-methyl-butan-2-ol] | 557 |
| Cc1nc(-c2ccc(CN3C[C@H]4CC[C@@H]3CN4CC(C)(C)CO)cc2)cc2c1cc(-c1ccc(S(C)(=O)=O)cc1)n2C [Example 45, 3-((1R,4R)-5-(4-(1,4-Dimethyl-2-(4-(methylsulfonyl)phenyl)-1H-pyrrolo[3,2-c]pyridin-6-yl)benzyl)-2,5-diazabicyclo[2.2.2]octan-2-yl)-2,2-dimethylpropan-1-ol] | 68 |
| Cc1nc(-c2ccc(N3CCN(CC(C)C)CC3)cc2)cc2c1cc(-c1ccc(S(=O)(=O)C3CC3)cc1)n2C [Example 46, 2-(4-(cyclopropylsulfonyl)phenyl)-6-(4-(4-isobutylpiperazin-1-yl)phenyl)-1,4-dimethyl-1H-pyrrolo[3,2-c]pyridine] | 213 |
| COc1nc(-c2ccc(CN3CCN(C(C)C)CC3)cc2)cc2c1cc(-c1ccc(S(C)(=O)=O)cc1)n2C [Example 126, 6-(4-((4-isopropylpiperazin-1-yl)methyl)phenyl)-4-methoxy-1-methyl-2-(4-(methylsulfonyl)phenyl)-1H-pyrrolo[3,2-c]pyridine] | 1260 |
| Cc1nc(-c2ccc(N3CCN(C4COC4)CC3)cc2)cc2c1cc(-c1ccc(S(=O)(=O)N(C)C)cc1)n2C [Example 50, 4-(1,4-dimethyl-6-(4-(4-(oxetan-3-yl)piperazin-1-yl)phenyl)-1H-pyrrolo[3,2-c]pyridin-2-yl)-N,N-dimethylbenzenesulfonamide] | 2410 |
| Cc1nc(-c2ccc(N3CCN(C(C)C)CC3)c(F)c2)cc2c1cc(-c1ccc(S(C)(=O)=O)cc1)n2C [Example 12, 6-(3-Fluoro-4-(4-isopropylpiperazin-1-yl)phenyl)-1,4-dimethyl-2-(4-(methylsulfonyl)phenyl)-1H-pyrrolo[3,2-c]pyridine] | 36 |
| Cc1nc(-c2ccc(N3CCN(C(C)C)CC3)cc2)cc2c1cc(-c1ccc(S(=O)(=O)N(C)C)cc1)n2C [Example 49, 4-(6-(4-(4-isopropylpiperazin-1-yl)phenyl)-1,4-dimethyl-1H-pyrrolo[3,2-c]pyridin-2-yl)-N,N-dimethylbenzenesulfonamide] | 6760 |
| Cc1nc(-c2ccc(N3CCN(C4CC4)CC3)cc2)cc2c1cc(-c1ccc(S(C)(=O)=O)cc1)n2C [Example 62, 6-(4-(4-cyclopropylpiperazin-1-yl)phenyl)-1,4-dimethyl-2-(4-(methylsulfonyl)phenyl)-1H-pyrrolo[3,2-c]pyridine] | 105 |
| Cc1nc(-c2ccc(N3CCN(CC(C)C)CC3)c(F)c2)cc2c1cc(-c1ccc(S(C)(=O)=O)cc1)n2C [Example 72, 6-(3-fluoro-4-(4-isobutylpiperazin-1-yl)phenyl)-1,4-dimethyl-2-(4-(methylsulfonyl)phenyl)-1H-pyrrolo[3,2-c]pyridine] | 411 |
| COCCN1CCN(c2ccc(-c3cc4c(cc(-c5ccc(S(C)(=O)=O)cc5)n4C)c(C)n3)cc2F)CC1 [Example 66, 6-(3-fluoro-4-(4-(2-methoxyethyl)piperazin-1-yl)phenyl)-1,4-dimethyl-2-(4-(methylsulfonyl)phenyl)-1H-pyrrolo[3,2-c]pyridine] | 136 |
| Cc1nc(-c2ccc(C3(O)CC4CCC(C3)N4C(C)C)cc2F)cc2c1cc(-c1ccc(S(C)(=O)=O)cc1)n2C [Example 103, (1R,3r,5S)-3-(4-(1,4-dimethyl-2-(4-(methylsulfonyl)phenyl)-1H-pyrrolo[3,2-c]pyridin-6-yl)-3-fluorophenyl)-8-isopropyl-8-azabicyclo[3.2.1]octan-3-ol] | 296 |

Biological target: T2, human TLR7 (Homo sapiens, UniProt Q9NYK1)
T2 construct: host or cells: HEK-Blue cells
T2 sequence (Q9NYK1 27-1049): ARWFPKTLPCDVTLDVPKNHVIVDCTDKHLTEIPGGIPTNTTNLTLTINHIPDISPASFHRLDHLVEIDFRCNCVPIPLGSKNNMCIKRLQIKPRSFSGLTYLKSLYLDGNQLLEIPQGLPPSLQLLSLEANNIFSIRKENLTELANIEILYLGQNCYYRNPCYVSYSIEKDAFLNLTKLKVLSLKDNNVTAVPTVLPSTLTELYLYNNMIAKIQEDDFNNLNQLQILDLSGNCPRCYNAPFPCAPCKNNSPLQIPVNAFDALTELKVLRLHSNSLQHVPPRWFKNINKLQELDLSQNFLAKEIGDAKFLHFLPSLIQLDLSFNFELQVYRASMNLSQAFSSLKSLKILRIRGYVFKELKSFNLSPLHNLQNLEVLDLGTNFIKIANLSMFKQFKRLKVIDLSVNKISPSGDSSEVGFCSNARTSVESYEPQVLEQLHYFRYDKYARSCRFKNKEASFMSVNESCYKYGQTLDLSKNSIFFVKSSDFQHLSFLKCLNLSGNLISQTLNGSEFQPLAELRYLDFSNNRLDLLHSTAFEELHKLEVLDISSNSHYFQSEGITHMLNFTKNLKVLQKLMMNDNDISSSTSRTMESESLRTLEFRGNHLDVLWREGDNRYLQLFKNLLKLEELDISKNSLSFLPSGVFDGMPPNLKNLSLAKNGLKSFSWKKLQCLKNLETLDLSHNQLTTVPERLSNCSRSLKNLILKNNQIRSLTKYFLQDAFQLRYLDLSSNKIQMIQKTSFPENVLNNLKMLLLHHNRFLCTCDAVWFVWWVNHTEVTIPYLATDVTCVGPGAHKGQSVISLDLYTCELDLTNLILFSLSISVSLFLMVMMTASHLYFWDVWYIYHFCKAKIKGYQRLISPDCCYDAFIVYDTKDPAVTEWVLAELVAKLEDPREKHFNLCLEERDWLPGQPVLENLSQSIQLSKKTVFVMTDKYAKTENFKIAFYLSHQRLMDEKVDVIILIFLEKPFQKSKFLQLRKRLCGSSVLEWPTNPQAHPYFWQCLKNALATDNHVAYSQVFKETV
Assay: TLR7 inhibition reporter assay (HEK-Blue cells, SEAP reporter)
Format: cell-based
Conditions: HEK-Blue cells overexpressing human TLR7, stimulated with gardiquimod 7.5 μM, 22 hour incubation
Protocol: as §1
HEK-Blue™-cells (Invivogen) overexpressing human TLR7, TLR8 or TLR9 receptors were used for screening inhibitors of these receptors using an inducible SEAP (secreted embryonic alkaline phosphatase) reporter gene under the control of the IFN-β minimal promoter fused to five NF-κB and AP-1-binding sites. Briefly, cells are seeded into Greiner 384 well plates (15000 cells per well for TLR7, 20,000 for TLR8 and 25,000 for TLR9) and then treated with test compounds in DMSO to yield a final dose response concentration range of 0.05 nM-50 μM. After a 30 minute compound pre-treatment at room temperature, the cells are then stimulated with a TLR7 ligand (gardiquimod at a final concentration of 7.5 μM), TLR8 ligand (R848 at a final concentration of 15.9 μM) or TLR9 ligand (ODN2006 at a final concentration of 5 nM) to activate NF-κB and AP-1 which induce the production of SEAP. After a 22 hour incubation at 37° C., 5% CO2, SEAP levels are determined with the addition of HEK-Blue™ Detection reagent (Invivogen), a cell culture medium that allows for detection of SEAP, according to manufacturer's specifications. The percent inhibition is determined as the % reduction in the HEK-Blue signal present in wells treated with agonist plus DMSO alone compared to wells treated with a known inhibitor.

| SMILES | IC50 [nM] |
| --- | --- |
| Cc1nc(-c2ccc(CN3CCN(CCC(C)(C)O)CC3)cc2)cc2c1cc(-c1ccc(S(C)(=O)=O)cc1)n2C(F)F [Example 117, 4-[4-[[4-[1-(difluoromethyl)-4-methyl-2-(4-methylsulfonylphenyl)pyrrolo[3,2-c]pyridin-6-yl]phenyl]methyl]piperazin-1-yl]-2-methyl-butan-2-ol] | 7800 |
| Cc1nc(-c2ccc(CN3C[C@H]4CC[C@@H]3CN4CC(C)(C)CO)cc2)cc2c1cc(-c1ccc(S(C)(=O)=O)cc1)n2C [Example 45, 3-((1R,4R)-5-(4-(1,4-Dimethyl-2-(4-(methylsulfonyl)phenyl)-1H-pyrrolo[3,2-c]pyridin-6-yl)benzyl)-2,5-diazabicyclo[2.2.2]octan-2-yl)-2,2-dimethylpropan-1-ol] | 750 |
